The assay has as its system HIV. Kind of assay: Assay for inhibition of HIV replication (acute HIV infection of T-lymphoid cells). Format: cell-based. Conditions: Human immunodeficiency virus 1, per Vacca et al. 1994. How it is done: Assay for Inhibition of HIV Replication
Assays for the inhibition of acute HIV infection of T-lymphoid cells were conducted in accordance with Vacca, J. P. et al., Proc. Natl. Acad. Sci. USA 1994, 91: 4096.

With `CCOC(=O)c1cn2c(c1O)C(=O)N(Cc1ccccc1)CC2` [Example 1, Ethyl 2-benzyl-8-hydroxy-1-oxo-1,2,3,4-tetrahydropyrrolo[1,2-α]pyrazine-7-carboxylate], the IC95 (in general, the concentration needed for an effect of 95%) is no more than 20 µM. In turn, `CCOC(=O)c1cn2c(c1O)C(=O)N(Cc1ccc(F)cc1)CC2` [Example 3, Ethyl 2-(4-fluorobenzyl)-8-hydroxy-1-oxo-1,2,3,4-tetrahydropyrrolo[1,2-]pyrazine-7-carboxylate] yielded an IC95 of no more than 20 µM. As to `CNC(=O)c1cn2c(c1O)C(=O)N(Cc1ccc(F)cc1)CC2` [Example 5, 2-(4-Fluorobenzyl)-8-hydroxy-N-methyl-1-oxo-1,2,3,4-tetrahydropyrrolo[1,2α]pyrazine-7-carboxamide], the IC95 was no more than 20 µM. To `CCNC(=O)c1cn2c(c1O)C(=O)N(Cc1ccc(F)cc1)CC2` [Example 6] belongs no more than 20 µM; to `O=C(NC1CC1)c1cn2c(c1O)C(=O)N(Cc1ccc(F)cc1)CC2` [Example 7, 2-(4Fluorobenzyl)-8-hydroxy-N-cyclopropyl-1-oxo-1,2,3,4-tetrahydropyrrolo[1,2α]pyrazine-7-carboxamide], no more than 20 µM. `CCOC(=O)c1cn2c(c1O)C(=O)N(Cc1cccc(Cl)c1)CC2` [Example 8, Ethyl 2(3-chlorobenzyl)-8-hydroxy-1-oxo-1,2,3,4-tetrahydropyrrolo[1,2-α]pyrazine-7-carboxylate] had an IC95 of no more than 20 µM. In the case of `CN1CCn2cc(C(=O)NCc3ccc(F)cc3)c(O)c2C1=O` [Example 10, N-(4-Fluorobenzyl)-8-hydroxy-2-methyl-1-oxo-1,2,3,4-tetrahydropyrrolo[1,2-α]pyrazine-7-carboxamide], the IC95 was no more than 20 µM. `CNC(=O)c1cn2c(c1O)C(=O)N(Cc1ccc(Cl)cc1)CC2` [Example 16, 2-(4-Chlorobenzyl)-8-hydroxy-N-methyl-1-oxo-1,2,3,4-tetrahydropyrrolo[1,2-α]pyrazine-7-carboxamide] registered an IC95 of no more than 20 µM. Next, `CNC(=O)c1cn2c(c1O)C(=O)N(Cc1ccc(F)c(F)c1)CC2` [Example 17, 2-(3,4-Difluorobenzyl)-8-hydroxy-N-methyl-1-oxo-1,2,3,4-tetrahydropyrrolo[1,2-α]pyrazine-7-carboxamide]: no more than 20 µM.

The values are drawn from patent US7399763B2, “8-hydroxy-1-oxo-tetrahydropyrrolopyrazine compounds useful as HIV integrase inhibitors” (Merck & Co., Inc., priority 2002, dated 2008).
